Laboratory results taken from patent publication US9394295B2, “Antibacterial homopiperidinyl substituted 3,4-dihydro-1H-[1,8]naphthyridinones” (Janssen Sciences Ireland UC, priority 2011, dated 2016).
≈ marks a conversion by molar mass, not a printed value. Read-outs that look alike come from different tables or passages of the source.

Legend:
S. aureus = test: Antibacterial susceptibility testing: IC90 determination with 10% human serum (STA + 10% HS); type: cell-based; details: Staphylococcus aureus; S. aureus with human serum at final concentration of 10%; read-out: STA + 10% HS (361.169) IC90
Description: The following bacteria were used: Staphylococcus aureus ATCC 29213, methicillin-resistant Staphylococcus aureus (MRSA) ATCC 700788 and Escherichia coli ATCC 35218. The bacteria used in this study were grown overnight in flasks containing 100 ml Mueller-Hinton broth (Difco cat. nr. 0757-17) in sterile de-ionized water, with shaking, at 37° C. Stocks were store at −70° C. until use.
Bacteria were incubated on a tryptic soy agar plate containing 5% sheep blood (Becton Dickinson cat. nr. 254053) for 18-24 hours at 35° C. in aerobic conditions (first passage). For the second passage, fresh Mueller-Hinton broth is inoculated with 5-10 colonies and grown overnight at 35° C. until turbidity (reaching log-phase) in aerobic conditions is reached. The bacterial suspension is then adjusted to 0.5 McFarland density and further diluted 1:100 in Mueller Hinton broth medium. This is used as inoculum.
MIC assays were performed by the broth microdilution method in a 96-well format (flat-bottom microtitre plates) with a final volume of 0.1 ml Mueller Hinton broth containing two-fold serial dilutions of compounds and inoculated with 5×10^5 CFU/ml of bacteria (standard inoculum size according to CLSI guidelines). Inhibitors are typically varied over the range of 63 to 0.49 μM. The final DMSO concentration in the assay was 1.25% (maximum tolerable DMSO concentration=6%). In the assays where the effect of human serum on the activity of the compounds against S. aureus was tested, human serum was added at a final concentration of 10%. The plates were incubated at 35° C. for 16-20 hours. At the end of incubation the bacterial growth was quantified fluorometrically. For this, resazurin was added to all wells and the plates were re-incubated. The incubation time is dependent on the type of bacteria. A change in color from blue to pink indicated the growth of bacteria. The fluorescence was read in computer-controlled fluorometer (Fluoroskan Ascent FL, Labsystems) at an excitation wavelength 540 nm and an emission wavelength of 590 nm. The % growth inhibition achieved by the compounds was calculated according to standard methods. The IC90 (expressed in μg/ml) was defined as the 90% inhibitory concentration for bacterial growth. A panel of reference compounds were simultaneously tested for QC approval.
The results are depicted in the table D2 below (STA+10% HS).

[1] = Cytotoxicity MTT assay (TOX HELAM); type: cell-based; details: human, HelaM cells, read-out: TOX HELAM (222.125) CC50
Description: Cytotoxicity of the compounds was evaluated using the MTT assay. Human HelaM cells grown in 96-well plates were exposed to serial dilutions of the tested compounds (final volume of 0.2 ml) and incubated for 72 hours at 37° C. and 5% CO2. Inhibitors are typically varied over the range of 25 to 0.8 μM. The final DMSO concentration in the assay is 0.5%. MTT (3-(4,5-Dimethylthiazol-2-yl)-2,5-diphenyltetrazolium bromide, a tetrazole) was added and reduced to purple formazan only in living cells. Solubilization of the formazan crystals was achieved by adding 100 μl 2-propanol. Cell viability was determined by measuring the absorbance of the reduced formazan, giving a purple color, at 540 nm and 690 nm. The absorbance measured at 690 nm was automatically subtracted from the absorbance at 540 nm, to eliminate the effects of non-specific absorption. The percent cytotoxicity achieved by the compounds was calculated according to standard methods. Cytotoxicity is reported as CC50, the concentration that causes a 50% reduction in cell viability.
The results are depicted in the table D2 below (TOX HELAM).

S. aureus ATCC 43300 = test: MIC broth microdilution (CLSI), S. aureus ATCC 43300; type: cell-based; details: Staphylococcus aureus, ATCC 43300 / MRSA, reference strain MRSA
Description: (§1) Minimum Inhibitory Concentrations (MICs) were determined in accordance with the Clinical and Laboratory Standards Institute (CLSI) methodology against aerobic bacteria (CLSI M07-A8) (see Clinical and Laboratory Standards Institute. 2009. Methods for dilution antimicrobial susceptibility tests for bacteria that grow aerobically. CLSI document M07-A8, Vol. 29, No. 2.) by the broth microdilution method with cation-adjusted Mueller-Hinton broth (CA-MHB) medium for the majority of organisms, except for Haemophilus influenza, where Haemophilis test medium (HTM) broth was used. Descriptions of the individual organisms can be found in the table. Where possible, ATCC standard strains were tested.
(§2) The inoculum density for the susceptibility testing was standardized to give a final inoculum of approximately 5×10^5 CFU/mL.
(§3) Stock solutions of the compounds were prepared in DMSO at concentrations of 1 mg/mL. Linezolid was prepared in DMSO at a concentration of 2 mg/mL. Stock solutions of all compounds were diluted into CA-MHB to give a range of two-fold dilutions, depending upon the sensitivity of the organism being tested.

S. aureus NRS120 = test: MIC broth microdilution (CLSI), S. aureus NRS120; type: cell-based; details: Staphylococcus aureus, LZD-R
Description: as §1, §2, §3

H. influenza ATCC 49247 = test: MIC broth microdilution (CLSI), H. influenza ATCC 49247; type: cell-based; details: Haemophilus influenzae, ATCC49247, HTM broth
Description: as §1, §2, §3

M. catarrhalis ATCC 8176 = test: MIC broth microdilution (CLSI), M. catarrhalis ATCC 8176; type: cell-based; details: Moraxella catarrhalis, ATCC8176
Description: as §1, §2, §3

[2] = In vivo pharmacokinetic and oral bioavailability; details: male Swiss mice; for half-life: read-out: Half life (t1/2) (converted)
Description: The in vivo pharmacokinetics and oral bioavailability of the compound of the examples was/is investigated in male Swiss mice (fed) following single intravenous (i.v.) bolus and oral (p.o.) administration. For the i.v. and p.o. solution formulations, the compound was/is dissolved in a 20% HP-β-CD solution. The pH of the formulations was/is around pH 4. All i.v. formulations were isotonic.

[3] = mouse, plasma, iv, i.v. 2.5 mg/kg
[4] = mouse, plasma, po, p.o. 10 mg/kg

O=C1CCc2cc(/C=C/C(=O)N3CCC=C(c4ccccc4)CC3)cnc2N1 [Co. No. 2]
IC90 (S. aureus): 0.33 µg/mL | CC50 at 72 h [1]: > 9.38 µg/mL | MIC90 (S. aureus ATCC 43300): 0.06 µg/mL (≈ 0.161 µM) | MIC90 (S. aureus NRS120): 0.06 µg/mL (≈ 0.161 µM)

COc1ccc(F)cc1C1=CCCN(C(=O)/C=C/c2cnc3c(c2)CCC(=O)N3)CC1 [Co. No. 27]
IC90 (S. aureus): 0.33 µg/mL | CC50 at 72 h [1]: > 10.6 µg/mL | MIC90 (S. aureus ATCC 43300): 0.06 µg/mL (≈ 0.142 µM) | MIC90 (S. aureus NRS120): 0.125 µg/mL (≈ 0.297 µM) | MIC90 (H. influenza ATCC 49247): > 8 µg/mL | MIC90 (M. catarrhalis ATCC 8176): 1 µg/mL (≈ 2.37 µM) | Vdz ([2]; i.v. 2.5 mg/kg): 1.2 L/kg | AUC(0-inf) [2, 3]: 3560 ng·h/mL | C0 ([2]; mouse, plasma, iv, i.v. 2.5 mg/kg, 20% HP-β-CD solution): 3350 ng/mL | half-life [2, 3]: 1.1 h | clearance ([2]; mouse, plasma, iv, i.v. 2.5 mg/kg, read-out: Plasma clearance Cl (converted)): 12.5 mL/min/kg | bioavailability ([2]; mouse, plasma, po, p.o. 10 mg/kg vs i.v. 2.5 mg/kg): 89% | AUC(0-inf) [2, 4]: 12600 ng·h/mL | Tmax [2, 4]: 0.5 h | Cmax ([2]; mouse, plasma, po, p.o. 10 mg/kg, 20% HP-β-CD solution): 4640 ng/mL | half-life [2, 4]: 2 h
